Assay results published in patent US10301280B2 (Plexxikon Inc., priority 2012, dated 2019).

Tests used:
c-kit mutant D816V = c-kit mutant D816V (Homo sapiens (Human), UniProt P10721, D816V/DEL694-753); experiment: c-Kit mutant D816V biochemical assay (AlphaScreen); conditions: c-kit D816V biochemical inhibitory activity
Outline: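 His-tagged c-Kit D816V kinase domain (551-934, Δ694-753, E. coli) phosphorylating 30 nM biotin-(E4Y)10 at 10 μM ATP in HEPES pH 7.2 with Mg/Mn, 5% DMSO, 30 min at room temperature. PY20-acceptor/streptavidin-donor AlphaScreen detection after EDTA stop. IC50 from 8-point 1:3 titration.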

[1] = tested on: BaF3-FL KIT D816V or BaF3-FL KIT V560G/D816V cell line; experiment: Cell-based assays of c-Kit mutant kinase activity (cell growth, ATPlite); conditions: at least one of the c-kit cell assays of Example 26
Outline: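 BaF3 cells dependent on full-length human KIT (D816V or V560G/D816V) seeded at 1×10^4 cells/well in RPMI with 10% FBS. Eight-point 1:3 dilutions from 10 μM top final (0.2% DMSO), 3 days at 37° C., 5% CO2. ATPlite luminescence gave IC50.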

Sequence of c-kit mutant D816V (P10721 other isoform, or with tags, fused parts or gaps D816V/del 694-753): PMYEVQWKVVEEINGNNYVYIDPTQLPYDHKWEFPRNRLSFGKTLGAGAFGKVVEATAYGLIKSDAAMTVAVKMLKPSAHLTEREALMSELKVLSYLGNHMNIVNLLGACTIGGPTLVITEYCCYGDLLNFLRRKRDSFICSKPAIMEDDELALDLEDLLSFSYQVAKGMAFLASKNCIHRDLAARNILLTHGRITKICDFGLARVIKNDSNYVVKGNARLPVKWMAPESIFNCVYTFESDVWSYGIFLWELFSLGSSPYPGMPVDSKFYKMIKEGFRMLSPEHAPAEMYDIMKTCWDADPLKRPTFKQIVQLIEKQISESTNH

Row | SMILES | IC50 (c-kit mutant D816V) [µM] | IC50 [1] [nM]
1 | Cc1n[nH]c(C(=O)Nc2cnc3[nH]c(-c4ccc(F)nc4F)cc3c2)c1C [P-2280, N-[2-(2,6-difluoro-3-pyridyl)-1H-pyrrolo[2,3-b]pyridin-5-yl]-3,4-dimethyl-1H-pyrazole-5-carboxamide] | 0.0001 to 1 | < 10000
2 | Cc1n[nH]c(C(=O)Nc2cnc3[nH]nc(-c4cccc(N5CCN(C(=O)OC(C)(C)C)CC5)c4)c3c2)c1C [P-2162, tert-butyl 4-[3-[5-[(3,4-dimethyl-1H-pyrazole-5-carbonyl)amino]-1H-pyrazolo[3,4-b]pyridin-3-yl]phenyl]piperazine-1-carboxylate] | 1 to 10 | < 10000
3 | Cc1noc(C)c1C(=O)Nc1cnc2[nH]c(-c3ccccc3)cc2c1 [P-2013, 3,5-dimethyl-N-(2-phenyl-1H-pyrrolo[2,3-b]pyridin-5-yl)isoxazole-4-carboxamide] | 10 to 200 | < 10000
4 | Cc1[nH]nc(C(=O)Nc2cnc3[nH]c(C4=CCN(C(=O)C5CC5)CC4)cc3c2)c1C [P-2043, N-[2-[1-(cyclopropanecarbonyl)-3,6-dihydro-2H-pyridin-4-yl]-1H-pyrrolo[2,3-b]pyridin-5-yl]-4,5-dimethyl-1H-pyrazole-3-carboxamide] | 0.0001 to 1 | < 10000
5 | Cc1n[nH]c(C(=O)Nc2cnc3[nH]c(-c4ccc(F)cc4)cc3c2)c1C [P-2024, N-[2-(4-fluorophenyl)-1H-pyrrolo[2,3-b]pyridin-5-yl]-3,4-dimethyl-1H-pyrazole-5-carboxamide] | 0.0001 to 1 | < 10000
6 | Cc1nn(C2CN(C(=O)OC(C)(C)C)C2)cc1-c1cc2cc(NC(=O)c3[nH]nc(C)c3C)cnc2[nH]1 [P-2285, tert-butyl 3-[4-[5-[(3,4-dimethyl-1H-pyrazole-5-carbonyl)amino]-1H-pyrrolo[2,3-b]pyridin-2-yl]-3-methyl-pyrazol-1-yl]azetidine-1-carboxylate] | 0.0001 to 1 | < 10000
7 | Cc1n[nH]c(C(=O)Nc2cnc3c(c2)cc(C2=CCN(C(=O)N4CCOCC4)CC2)n3S(=O)(=O)c2ccccc2)c1C [P-2033, N-[1-(benzenesulfonyl)-2-[1-(morpholine-4-carbonyl)-3,6-dihydro-2H-pyridin-4-yl]pyrrolo[2,3-b]pyridin-5-yl]-3,4-dimethyl-1H-pyrazole-5-carboxamide] | 0.0001 to 1 | < 10000
8 | Cc1n[nH]c(C(=O)Nc2cnc3[nH]c(-c4ccccc4OC(F)(F)F)cc3c2)c1C [P-2182, 3,4-dimethyl-N-[2-[2-(trifluoromethoxy)phenyl]-1H-pyrrolo[2,3-b]pyridin-5-yl]-1H-pyrazole-5-carboxamide] | 0.0001 to 1 | < 10000
9 | Cc1n[nH]c(C(=O)Nc2cnc3[nH]ccc3c2)c1C [P-2032, 3,4-dimethyl-N-(1H-pyrrolo[2,3-b]pyridin-5-yl)-1H-pyrazole-5-carboxamide] | 1 to 10 | < 10000
10 | Cc1n[nH]c(C(=O)Nc2cnc3[nH]c(C4=CCN(C(=O)N5CCOCC5)CC4)cc3c2)c1C [P-2034, 3,4-dimethyl-N-[2-[1-(morpholine-4-carbonyl)-3,6-dihydro-2H-pyridin-4-yl]-1H-pyrrolo[2,3-b]pyridin-5-yl]-1H-pyrazole-5-carboxamide] | 0.0001 to 1 | < 10000
11 | Cc1cc(C(=O)Nc2cnc3[nH]c(C4=CCN(C(=O)C5CC5)CC4)cc3c2)n[nH]1 [P-2042, N-[2-[1-(cyclopropanecarbonyl)-3,6-dihydro-2H-pyridin-4-yl]-1H-pyrrolo[2,3-b]pyridin-5-yl]-5-methyl-1H-pyrazole-3-carboxamide] | 0.0001 to 1 | < 10000
12 | Cc1nn(C2CNC2)cc1-c1cc2cc(NC(=O)c3[nH]nc(C)c3C)cnc2[nH]1 [P-2286, N-[2-[1-(azetidin-3-yl)-3-methyl-pyrazol-4-yl]-1H-pyrrolo[2,3-b]pyridin-5-yl]-3,4-dimethyl-1H-pyrazole-5-carboxamide] | 0.0001 to 1 | < 10000
13 | Cc1n[nH]c(C(=O)Nc2cnc3[nH]nc(-c4cccc(N5CCNCC5)c4)c3c2)c1C [P-2166, 3,4-dimethyl-N-[3-(3-piperazin-1-ylphenyl)-1H-pyrazolo[3,4-b]pyridin-5-yl]-1H-pyrazole-5-carboxamide] | 0.0001 to 1 | < 10000
14 | Cc1n[nH]c(C(=O)Nc2cnc3[nH]c(-c4ccc(CC(=O)O)cc4)cc3c2)c1C [P-2295, 2-[4-[5-[(3,4-dimethyl-1H-pyrazole-5-carbonyl)amino]-1H-pyrrolo[2,3-b]pyridin-2-yl]phenyl]acetic acid] | 0.0001 to 1 | < 10000
15 | Cc1n[nH]c(C(=O)Nc2cnc3[nH]nc(C)c3c2)c1C [P-2040, 3,4-dimethyl-N-(3-methyl-1H-pyrazolo[3,4-b]pyridin-5-yl)-1H-pyrazole-5-carboxamide] | 0.0001 to 1 | < 10000
16 | O=C(O)c1cccc(C(=O)Nc2cnc3[nH]c(-c4ccccc4)cc3c2)c1 [P-2291, 3-[(2-phenyl-1H-pyrrolo[2,3-b]pyridin-5-yl)carbamoyl]benzoic acid] | 10 to 200 | < 10000
17 | Cc1[nH]nc(C(=O)Nc2cnc3[nH]c(C4=CCN(C(=O)C5CC5)CC4)cc3c2)c1Cl [P-2039, 4-chloro-N-[2-[1-(cyclopropanecarbonyl)-3,6-dihydro-2H-pyridin-4-yl]-1H-pyrrolo[2,3-b]pyridin-5-yl]-5-methyl-1H-pyrazole-3-carboxamide] | 0.0001 to 1 | < 10000
18 | Cc1nn(C)cc1-c1cc2cc(NC(=O)c3[nH]nc(C)c3C)cnc2[nH]1 [P-2038, N-[2-(1,3-dimethylpyrazol-4-yl)-1H-pyrrolo[2,3-b]pyridin-5-yl]-4,5-dimethyl-1H-pyrazole-3-carboxamide] | 0.0001 to 1 | < 10000
19 | O=C(Nc1cnc2[nH]c(-c3ccc(F)cc3)cc2c1)c1n[nH]c2ccccc12 [P-2046, N-[2-(4-fluorophenyl)-1H-pyrrolo[2,3-b]pyridin-5-yl]-1H-indazole-3-carboxamide] | 0.0001 to 1 | < 10000
20 | [2H]c1c([2H])c([2H])c(-c2cc3cc(NC(=O)c4[nH]nc(C)c4C)cnc3[nH]2)c([2H])c1[2H] [P-2164, 3,4-dimethyl-N-[2-(2,3,4,5,6-pentadeuteriophenyl)-1H-pyrrolo[2,3-b]pyridin-5-yl]-1H-pyrazole-5-carboxamide] | 0.0001 to 1 | < 10000
21 | Cc1n[nH]c(C(=O)Nc2cnc3[nH]c(C4=CCN(S(C)(=O)=O)CC4)cc3c2)c1Cl [P-2057, 4-chloro-3-methyl-N-[2-(1-methylsulfonyl-3,6-dihydro-2H-pyridin-4-yl)-1H-pyrrolo[2,3-b]pyridin-5-yl]-1H-pyrazole-5-carboxamide] | 0.0001 to 1 | < 10000
22 | Cc1n[nH]c(C(=O)Nc2cnc3[nH]c(Cl)cc3c2)c1C [P-2049, N-(2-chloro-1H-pyrrolo[2,3-b]pyridin-5-yl)-3,4-dimethyl-1H-pyrazole-5-carboxamide] | 0.0001 to 1 | < 10000
